Like-named read-outs stand apart in the source and are kept apart here.

Common to all, as to format: cell-based
The subject of data set [1] is rat BNP promoter activity in neonatal rat ventricular myocytes. As to the kind of experiment: BNP promoter luciferase reporter in neonatal cardiomyocytes with or without endothelin-1. The method, then:
Five compounds (GATA4–NKX2-5 synergy inhibitors 1, 61, and 65; the synergy activator 2; and the NKX2-5 activity inhibitor 47c) were selected for studies in neonatal cardiomyocytes, which were treated with endothelin-1 (ET-1), a well-established hypertrophic agonist that activates the gene expression of both ANP and BNP (Figure 4). The myocytes were transfected with construct containing −534/+4 proximal region of rat BNP promoter with GATA4 and NKX2-5 binding sites in front of luciferase before exposure to compounds and ET-1, which was added 1 h after the compounds.
Figure 4 Effects of the compounds 1, 2, 47c, 61, and 65 on BNP gene activation in cardiomyocytes. Neonatal cardiomyocytes were transfected with rat BNP luciferase reporter for 24 h. The cells were exposed to compounds and 1 h later to endothelin-1 (ET-1) for 24 h. The results are expressed as +SD (n = 3 or 9 for DMSO groups). ***P < 0.001 vs DMSO; **P < 0.01 vs DMSO; *P < 0.05 vs DMSO (one-way ANOVA followed by Tukey’s HSD or Welch ANOVA followed by Games–Howell); ^###P < 0.001 vs DMSO, no stimulus (independent samples Student’s t test).
The plasmids expressing mouse GATA4 protein, pMT2-GATA4, and empty pMT2 were gifts from D. B. Wilson (Department of Pediatrics, St. Louis Children’s Hospital, St. Louis, MO).[44] The plasmids expressing mouse NKX2-5 protein, pMT2-NKX2-5, have been described earlier.[28] The luciferase reporter plasmid used in GATA4–NKX2-5 transcriptional synergy assay and NKX transcriptional assay, pGL3-3xHA, contains three high affinity binding sites for NKX2-5.[28] The luciferase reporter plasmid used in GATA transcriptional assay, NP-112, contains tandem GATA-sites and minimal promoter of rat brain natriuretic peptide (BNP) gene.[45] The pGL3-BNP luciferase reporter containing −534/+4 bp rat BNP proximal promoter described previously was used in hypertrophy assay.[46]
The neonatal rat ventricular myocytes were isolated from 2- to 3-day-old Wistar rats, as described earlier.[29],[32] Rat pups were acquired from the experimental animal facility of the University of Helsinki with an internal use license (KEK17-012). Animals were housed in standard conditions, and their handling and all procedures were carried out in accordance with University of Helsinki institutional guidelines, which conform to the National Research Council (U.S.) Guide for the Care and Use of Laboratory Animals.[47] The cells were seeded at 50 000 cells/well in Isoplate-96 microplates (PerkinElmer, Turku, Finland) and cultured for 18–20 h with Dulbecco’s modified Eagle medium (DMEM)/F12 culture medium containing 2.5 mM L-glutamine, supplemented with 100 IU/mL penicillin–streptomycin and 10% fetal bovine serum (all from Gibco, Thermo Scientific). Transfections were carried out for 24 h in serum free media (CSFM; DMEM/F12, 2.5 mg/mL bovine serum albumin, 1 μM insulin, 2.5 mM L-glutamine, 32 nM selenium, 2.8 mM sodium pyruvate, 5.64 μg/mL transferrin, 1 nM T3, and 100 IU/mL PS) by using 100 ng of pGL3-BNP luciferase plasmid per well in a 1:3 ratio of DNA/transfection reagent (Fugene 6, Promega). […] After 24 h, the luminescence was measured as above.
Results from cardiomyocyte experiments are expressed as mean + SD from at least three independent experiments. Data were analyzed using IBM SPSS Statistics 24 software. […] Significance between ET-1 and DMSO samples was analyzed with independent samples Student’s t test. […]
For orientation: Reporter assays use an easily measured gene product as a stand-in for the process of interest.

Data set [2] deals with T1, NKX2-5 transcriptional activity (Mus musculus, UniProt P42582).
T1 construct: expressed in transfected cells; host or cells: COS-1
T1 sequence (P42582 whole entry): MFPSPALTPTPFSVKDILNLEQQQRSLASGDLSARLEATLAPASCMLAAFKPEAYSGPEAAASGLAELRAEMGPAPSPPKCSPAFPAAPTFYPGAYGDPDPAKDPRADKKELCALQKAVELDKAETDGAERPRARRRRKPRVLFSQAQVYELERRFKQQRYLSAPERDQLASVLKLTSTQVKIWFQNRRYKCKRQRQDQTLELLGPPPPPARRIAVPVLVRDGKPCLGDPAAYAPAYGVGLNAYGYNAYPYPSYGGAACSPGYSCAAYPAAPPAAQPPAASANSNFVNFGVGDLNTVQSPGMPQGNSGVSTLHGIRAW
As to the kind of experiment: NKX2-5 luciferase reporter assay (3xNKE reporter, COS-1 cells). To be noted: COS-1, luciferase reporter activity relative to control; for activity at 3 µM: read-out: NKX.3µM; for activity at 10 µM: read-out: NKX.10µM.

Data set [3] concerns the target T2, GATA4 transcriptional activity (Mus musculus, UniProt Q08369).
T2 construct: expressed in transfected cells; host or cells: COS-1
In words: GATA4 luciferase reporter assay (tandem GATA-site reporter, COS-1 cells). The following applies: for activity at 3 µM / activity at 10 µM: COS-1, luciferase reporter activity relative to control.

Data set [4] has as its system COS-1 cells. As to the kind of experiment: MTT assay (cell viability). To be noted: cell viability. (Formazan colour is commonly taken as a measure of viable cells.)
Data set [5] deals with T3, GATA4–NKX2-5 transcriptional synergy (Mus musculus, UniProt P42582+Q08369).
T3 construct: expressed in transfected cells; host or cells: COS-1
T3 sequence (Q08369 whole entry): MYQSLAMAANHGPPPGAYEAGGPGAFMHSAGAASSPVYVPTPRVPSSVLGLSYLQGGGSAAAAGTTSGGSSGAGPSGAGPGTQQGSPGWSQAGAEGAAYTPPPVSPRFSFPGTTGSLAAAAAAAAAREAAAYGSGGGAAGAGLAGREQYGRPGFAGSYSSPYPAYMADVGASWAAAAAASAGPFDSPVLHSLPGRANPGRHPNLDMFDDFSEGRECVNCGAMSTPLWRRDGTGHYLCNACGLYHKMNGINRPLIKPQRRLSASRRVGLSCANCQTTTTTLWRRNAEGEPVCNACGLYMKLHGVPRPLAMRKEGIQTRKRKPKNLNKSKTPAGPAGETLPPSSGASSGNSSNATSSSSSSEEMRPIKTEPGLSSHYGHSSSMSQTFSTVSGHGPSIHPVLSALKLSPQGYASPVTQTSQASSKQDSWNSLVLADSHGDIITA
T3 sequence (P42582 whole entry): as the sequence (P42582 whole entry) above
In words: GATA4–NKX2-5 transcriptional synergy luciferase reporter assay (3xNKE reporter, COS-1 cells). To be noted: COS-1, luciferase reporter activity relative to control.

Data set [6] has as its system COS-1 cells. In words: LDH assay (necrosis).

T2 sequence (Q08369 whole entry): as the sequence (Q08369 whole entry) above

Regarding “ET-1: endothelin-1, a well-established hypertrophic agonist that activates the gene expression of both ANP and BNP [reference compound]”, in data set [1] (neonatal cardiomyocytes, 24 h), the “increase in BNP gene activity” value is reported as ~3 fold.
`CCN(CC)c1ccc(NC(=O)c2cnc(SC)n2-c2ccc(F)cc2)cc1` [Compound 47z]: in data set [2] (3 µM), the activity at 3 µM was 91.1%. Besides, the activity at 3 µM in data set [3] (3 µM) was found to be 91.4%. In data set [4], this compound yielded an MTT.1µM of 102.53, an MTT.3µM of 95.99, an MTT.10µM of 96.05 and an MTT.30µM of 93. Besides, in data set [5] (3 µM), the activity at 3 µM worked out at 67.6%. Besides, in data set [6], the LDH.1µM came out at 0.94, the LDH.3µM was found to be 1.33, the LDH.10µM is -0.3 and the LDH.30µM was -0.25.
As for `CCN(CC)c1ccc(NC(=O)c2cnc3ncccn23)cc1` [Compound 47aa], the activity at 3 µM in data set [2] (3 µM) is 112%. In addition, in data set [2] (10 µM), the activity at 10 µM came out at 118%. Also, the “GATA4 (% of control) Mean ± SD” value in data set [3] (10 μM, COS-1 cells, 24 h) is reported as 130 % of control. For the same compound, the activity at 3 µM in data set [3] (3 µM) is 108%. In addition, the activity at 10 µM in data set [3] (10 µM) turned out to be 132%. In data set [4], this compound showed an MTT.1µM of 101.8, an MTT.3µM of 103.86, an MTT.10µM of 99.76 and an MTT.30µM of 95.63. Moreover, in data set [5] (3 µM), the activity at 3 µM turned out to be 101%. Also, the activity at 10 µM in data set [5] (10 µM) is 144%. Moreover, in data set [6], the LDH.1µM turned out to be 1.59, the LDH.3µM came out at 1, the LDH.10µM is 1.6 and the LDH.30µM is reported as -0.51.
Take `CCN(CC)c1ccc(NC(=O)c2ccnn2-c2ccccc2)cc1` [SI88]: the activity at 3 µM in data set [2] (3 µM) was 75.3%. The activity at 10 µM in data set [2] (10 µM) was determined as 60.7%. In data set [3] (3 µM), the activity at 3 µM is 92.3%. Moreover, in data set [3] (10 µM), the activity at 10 µM stood at 61.8%. In data set [4], the MTT.1µM is 105.89, the MTT.3µM stood at 89.83, the MTT.10µM turned out to be 83.67 and the MTT.30µM worked out at 88.35. In data set [5] (3 µM), the activity at 3 µM was determined as 62.4%. The activity at 10 µM in data set [5] (10 µM) turned out to be 52.7%. For the same compound, in data set [6], the LDH.1µM is 2.08, the LDH.3µM is -0.13, the LDH.10µM turned out to be 0.07 and the LDH.30µM is -1.27.
For `CCN(CC)c1ccc(NC(=O)c2c(-c3ccncc3)noc2C)cc1` [Compound 39c], the activity at 3 µM in data set [2] (3 µM) turned out to be 100%. Also, the activity at 3 µM in data set [3] (3 µM) turned out to be 94%. In data set [4], the MTT.1µM is on record as 105.77, the MTT.3µM is listed as 106.28, the MTT.10µM came out at 90.58 and the MTT.30µM is on record as 90.91. The activity at 3 µM in data set [5] (3 µM) stood at 81.1%. Moreover, in data set [6], the LDH.1µM is recorded as 0.58, the LDH.3µM stood at 0.49, the LDH.10µM was -0.99 and the LDH.30µM is on record as -0.68.
Turning to `CCN(c1ccc(NC(=O)c2cnsc2)cc1)C(C)C` [Compound 61], the activity at 3 µM in data set [2] (compound 3 µM) came out at 38.2%; in data set [3] (compound 3 µM), 71.1%; in data set [5] (compound 3 µM), 28.8%. The activity at 10 µM in data set [2] (compound 10 µM) is 10.7%; in data set [3] (compound 10 µM) it was 20.4%; in data set [5] (compound 10 µM), 11.6%. The “inhibition of the ET-1 hypertrophic response, BNP gene activity (in words)” value in data set [1] (30 μM, ET-1 added 1 h after compound) was “the most potent inhibitor of the hypertrophic response”. Besides, the “effect on BNP promoter activity in cardiomyocytes (in words)” value in data set [1] (neonatal cardiomyocytes, 24 h) is “most strongly inhibited the BNP promoter activity”.
In the case of `CCN(CC)c1ccc(CN(C(=O)C(F)(F)F)c2c(-c3ccccc3)noc2C)cc1` [Compound 30c], the activity at 3 µM in data set [2] (3 µM) amounted to 113%. In addition, the activity at 3 µM in data set [3] (3 µM) came out at 92.4%. For the same compound, in data set [4], the MTT.1µM is given as 100.8, the MTT.3µM amounted to 97.78, the MTT.10µM stood at 91.24 and the MTT.30µM amounted to 75.4. In addition, the activity at 3 µM in data set [5] (3 µM) was determined as 100%. Further, in data set [6], the LDH.1µM worked out at 1.2, the LDH.3µM was found to be 0, the LDH.10µM was -0.99 and the LDH.30µM is on record as -1.08.
For `CCN(CC)c1ccc(NC(=O)c2csc([N+](=O)[O-])c2)cc1` [Compound 47u], the activity at 3 µM in data set [2] (3 µM) was determined as 37.8%. Moreover, the activity at 3 µM in data set [3] (3 µM) was 28.7%. In data set [4], this compound returned an MTT.1µM of 105.56, an MTT.3µM of 102.26, an MTT.10µM of 97.2 and an MTT.30µM of 88.36. Also, the activity at 3 µM in data set [5] (3 µM) amounted to 32.3%. In data set [5] (10 µM), the activity at 10 µM was found to be 24.5%. For the same compound, in data set [6], the LDH.1µM is recorded as 7.78, the LDH.3µM is given as 6.19, the LDH.10µM is on record as 2.98 and the LDH.30µM worked out at 1.83.
Regarding `CCN(CC)c1ccc(NC(=O)c2c(-c3ccsc3)noc2C)cc1` [Compound 39m], the activity at 3 µM in data set [2] (3 µM) came to 122%. Moreover, the activity at 3 µM in data set [3] (3 µM) turned out to be 103%. Moreover, in data set [4], the MTT.1µM came to 102.49, the MTT.3µM came to 98.85, the MTT.10µM amounted to 88.28 and the MTT.30µM turned out to be 82.62. The activity at 3 µM in data set [5] (3 µM) is 87.2%. In data set [6], the LDH.1µM is recorded as -0.35, the LDH.3µM came out at 0.79, the LDH.10µM is on record as -1.72 and the LDH.30µM is listed as -1.23.
For `Cc1onc(-c2ccccc2)c1C(=O)Nc1ccc(C#C[Si](C)(C)C)cc1` [Compound 4j, 5-Methyl-3-phenyl-N-[4-[(trimethylsilyl)ethynyl]phenyl]isoxazole-4-carboxamide], in data set [2] (3 µM), the activity at 3 µM is 98.2%. For the same compound, the activity at 3 µM in data set [3] (3 µM) is 110%. Moreover, in data set [4], the MTT.1µM came to 104.97, the MTT.3µM is 104.95 and the MTT.10µM turned out to be 102.07. Further, the activity at 3 µM in data set [5] (3 µM) came out at 67.8%. In data set [6], this compound showed an LDH.1µM of 1.09, an LDH.3µM of 1.13, an LDH.10µM of 0.61 and an LDH.30µM of 1.5.

The values above are taken from PMC7076710, “Synthesis, Identification, and Structure–Activity Relationship Analysis of GATA4 and NKX2-5 Protein–Protein Interaction Modulators” (Journal of Medicinal Chemistry, 2019).
